Legend:
[1] = system: Bax protein; experiment: co-localization between Bax protein and chondriosome, Bax-YFP transfected MCF-7 cells; type: cell-based; details: for Time for which the compound drove the BAX to shift towards the chondriosome: goes with the concentration of E14; for Concentration at which the compound drove the BAX to shift towards the chondriosome: goes with the time of E15
Method: 5 ng of Bax-YFP plasmid was transfected into MCF-7 cells by using calcium phosphate coprecipitation method, 24 hours later, the cells were inoculated in a 6-well plate (0.2×10^6 cells/well), and 10 μM of the compound 3-thiomorpholinyl-8-oxo-8 H-acenaphtho[1,2-b]pyrrole-9-carbonitrile to be detected was added thereinto. 6 hours later, the cells were washed with PBS and hatched away from light with 50 nM Mito Tracker Red CMXRos (chondriosome specific probes; red) for 10 minutes. Then the cells were washed with PBS for three times, and the fluorescent image was scanned with Radiance2000 laser confocal microscopy (Bio-Rad, USA). Meanwhile, dual channel scanning was carried out, one channel was used to scan the green fluorescence of Bax-YFP, and the other channel was used to scan the red fluorescence of the CMXRos probe for indicating the chondriosome. […] When the Bax protein was localized on the chondriosome, the green and red fluorescence was superimposed into orange, as shown in FIG. 4.
Other 8 compounds were detected by the same experimental method as described above. […] Wherein the concentration and time meant that the detected compound simulated the BH3-only protein and driven the BAX to shift towards the chondriosome at the concentration for the time period.

[2] = target: T1, GST-Bcl-2 protein (Homo sapiens, UniProt P10415); experiment: fluorescence polarization assay, competitive binding against FAM-Bid peptide; details: Table 3; FAM-Bid competition; table does not say whether Bcl-2 or Mcl-1; read-out: Binding constant
T1 construct: fused on or other part: GST tag on Bcl-2
Method: A Bid BH3 peptide (amino acids: 79-99: […]) having 21 amino acids was synthesized and marked with 6-carboxyfluorescein N-succinimidyl ester (FAM) as fluorescent tag (FAM-Bid) at the N-terminal. The reaction system used in the competitive binding experiment was GST-Bcl-2 protein (40 nM) or Mcl-1 protein, which was dissolved in the reaction buffer (100 mM K3PO4, pH 7.5; 100 μg/ml bovine γ albumin; 0.02% sodium azide) together with FAM-Bid polypeptide (5 nM). In a 96-well plate, 100 μL of the reaction system was added into each well. Then 1 μL different concentration of 3-thiomorpholinyl-8-oxo-8H-acenaphtho[1,2-b]pyrrole-9-carbonitrile mother solution to be detected dissolved in DMSO was added thereinto until the final concentration met the experimental design requirements. Meanwhile, two control groups were established, one with the reaction system only contains Bcl-2 or Mcl-1 and FAM-Bid (equivalent to 0% inhibition rate), the other with the reaction system only containing FAM-Bid peptide. After 4 hours of incubation, the 96-well plate was detected by enzyme-labelled meter. The fluorescent polarization value (mP) was tested at […]. Ki value was deduced according to calculation formula. The competitive binding constant between the compound and Bcl-2 was 310 nM.

T1 sequence (P10415 whole entry, the tested form may be a part): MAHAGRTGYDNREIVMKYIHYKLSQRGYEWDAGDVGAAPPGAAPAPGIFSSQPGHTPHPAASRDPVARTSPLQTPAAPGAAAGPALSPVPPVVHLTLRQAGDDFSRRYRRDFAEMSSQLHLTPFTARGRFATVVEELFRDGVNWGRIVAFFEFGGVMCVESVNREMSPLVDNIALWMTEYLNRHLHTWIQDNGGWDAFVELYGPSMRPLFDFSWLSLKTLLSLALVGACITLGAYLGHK

| Ki [2] | SMILES | Time for which the compound drove the BAX to shift towards the chondriosome [1] | Concentration at which the compound drove the BAX to shift towards the chondriosome [1] |
| --- | --- | --- | --- |
| 7 nM | N#CC1=C2C(=NC1=O)c1c(Sc3ccc(N)cc3)ccc3c(Sc4ccc(N)cc4)ccc2c13 [3,6-di(4-aminophenylthio)-8-oxo-8 H-acenaphtho[1,2-b]pyrrole-9-carbonitrile] | 6 h | 5.0 µM |
| 5 nM | N#CC1=C2C(=NC1=O)c1c(Sc3ccc(Br)cc3)ccc3c(Sc4ccc(Br)cc4)ccc2c13 [3,6-di(4-bromophenylthio)-8-oxo-8H-acenaphtho[1,2-b]pyrrole-9-carbonitrile] | 6 h | 5.0 µM |
| 17 nM | N#CC1=C2C(=NC1=O)c1cccc3c(Sc4ccc(Br)cc4)ccc2c13 [3-(4-bromophenylthio)-8-oxo-8H-acenaphtho[1,2-b]pyrrole-9-carbonitrile] | 6 h | 1.0 µM |
| 20 nM | N#CC1=C2C(=NC1=O)c1c(Sc3ccc(N)cc3)ccc3cccc2c13 [6-(4-aminophenylthio)-8-oxo-8H-acenaphtho[1,2-b]pyrrole-9-carbonitrile] | 6 h | 5.0 µM |
| 0.3 nM | N#CC1=C2C(=NC1=O)c1cccc3cccc2c13 [8-oxo-8H-acenaphtho[1,2-b]pyrrole-9-carbonitrile] | 3 h | 1.0 µM |

From patent publication US20110251188A1, “ACENAPHTHO HETEROCYCLE COMPOUNDS, CYCLODEXTRIN INCLUSION COMPOUNDS AND COMPLEXES, AND USES IN THE MANUFACTURES OF BH3 PROTEIN ANALOGUE, BCL-2 FAMILY PROTEIN INHIBITORS THEREOF” (DALIAN UNIVERSITY OF TECHNOLOGY, priority 2008, published 2011)
